Like-named read-outs stand apart in the source and are kept apart here.
Experiments:
[1] = target: T1, RORγ ligand-binding domain (Homo sapiens, UniProt P51449); assay: RORγ Reporter Assay (Gal4); assay type: cell-based
T1 construct: Gal4 (galactose-responsive transcription factor); expressed in transfected cells; host or cells: HEK293, transient co-transfection
T1 sequence (P51449 269-508 limits assumed): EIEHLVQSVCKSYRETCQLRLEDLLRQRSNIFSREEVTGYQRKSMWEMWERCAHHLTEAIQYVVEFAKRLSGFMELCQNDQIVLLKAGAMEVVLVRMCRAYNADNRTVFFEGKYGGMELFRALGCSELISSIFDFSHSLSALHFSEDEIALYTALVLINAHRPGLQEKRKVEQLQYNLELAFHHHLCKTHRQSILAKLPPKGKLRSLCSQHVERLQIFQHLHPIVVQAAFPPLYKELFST
Summary of the method: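 HEK293 cells transiently co-transfected with Gal4–RORγ LBD fusion and UAS-luciferase reporter, plated 2 h, then exposed to compound (0.1% DMSO final) for 24 h at 37 °C. Luminescence read; percent reduction vs vehicle fitted to dose-response curves.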

[2] = system: IL-17A secretion in activated PBMCs; assay: IL-17A secretion in activated PBMCs; assay type: cell-based; details: human PBMCs stimulated with CD3/CD28 Dynabeads for 48 h, absolute IC50
Excerpt: Heparin-treated whole blood from healthy human volunteers was supplied from Hospital de Sant Pau (Barcelona) under the approval of the local ethical review board for human studies (Hospital de Sant Pau, Barcelona, Spain). Human peripheral blood mononuclear cells (PBMCs) were isolated from healthy human volunteers by density gradient centrifugation using the Ficoll-Paque (GE Healthcare). PBMCs were suspended in cell culture medium which consisted on RPMI 1640 medium (Sigma-Aldrich) containing 10% heat inactivated fetal bovine serum (Sigma-Aldrich), 2 mM L-Glutamine (Gibco), 20 mM Hepes (Gibco) and 100 U/mL penicillin (Sigma-Aldrich). Cells were seeded in 384-well plate (DiscoverX), at 40,000 cells per well and cultured 2 h at 37° C. and 5% CO2.
Dose-response curves with compounds were prepared using a 5-fold serial dilution (10 concentrations) in 100% DMSO and further diluted 100-fold in culture medium. Compound solutions (5 μL) were added to the plate containing cells (final DMSO concentration of 0.1%) and incubated for 30 min. Then, cells were stimulated with CD3/CD28 Dynabeads (ThermoFisher, at a bead-to-cell ratio of 1:1) for 48 h at 37° C. and 5% CO2.
IL-17A levels in supernatant were determined by immunoassay using hIL17A QBeads (Intellicyt) and by fluorescence analysis in iQue flow cytometer following the manufacturer's instructions. Inhibition of IL-17A secretion was calculated using the following formula: inhibition=100*[1−[(x−mean basal condition)/(mean top condition—mean basal condition)]]. Activated DMSO-treated cells were used as top condition and activated GNE09461 (10 μM)-treated cells as basal condition.

plasma IL-17A = assay: In vivo IL-17A induction in anti-CD3 model in mice; details: oral gavage twice daily day 0 to day 3, anti-CD3e induced C57BL/6JRj mice
Procedure: Male C57BL/6JRj mice (7 week old) were purchased from Janvier Labs and housed at the animal facilities of Almirall throughout the study. Animals were allowed to condition for 5 days in their new environment at 22° C.±2° C., 55%±10% relative humidity and 12 h:12 h light:dark cycles. Animals were housed in polycarbonate cages, with free access to water and non-purified stock diet (2014 Teklad Global 14% Protein Rodent Maintenance Diet, Envigo) during the full course of the studies. Care of animals was undertaken in compliance with the European Committee Directive 2010/63/EU, and the Catalan and Spanish law. […]
Plasma levels of IL-17A were measured by ELISA (R&D Systems) according to the manufacturer's instruction. Results were calculated as the percentage of reduction of plasma IL-17A versus the difference between non-induced and anti-CD3e induced groups through the formula: inhibition=100*[1−[(x−mean non-induced)/(mean control vehicle−mean non-induced)]]. The IL-17A inhibition for each treatment can be expressed as the mean for each treatment group±S.E.M. Statistical analysis of data were conducted with one-way ANOVA followed by Dunnett's multiple comparisons test when appropriate. […]

Th17 cells = assay: Th17 Assay (IL-17 levels in supernatants of differentiated Th17 cells); assay type: cell-based; details: Homo sapiens, 168 h; naive CD4+ T cells differentiated to Th17 for seven days, IL-17 by ELISA
Procedure: Human peripheral blood mononuclear cells (PBMCs) were isolated from buffy coats of healthy human volunteers using the Ficoll paque PLUS kit (GE Healthcare, cat no 17-1440-02), as instructed by the manufacturer. Naive CD4+ T cells were isolated with Naive CD4+ T cell kit, human (Milteny Biotec, cat no 130-094-131). The following modifications were made to the manufacturer's protocol: 1) Incubation with Biotin-Antibody Cocktail and Anti-Biotin MicroBeads was prolonged to 30 minutes, and 2) Cells were washed with 40 mL of Miltenyi buffer. Differentiation of Th17 cells in anti-CD3 (BD Pharmingen, 5 μg/ml) coated 96-well plates (400,000 cells/well, 160 μl RPMI 1640+10% Fetal Bovine Serum) containing 5 μg/ml anti-CD28 (BD Pharmingen), 10 ng/ml IL-2 (R&D Systems), 2.5 ng/ml TGFβ-1 (R&D Systems), 20 ng/ml IL-10 (R&D Systems), 20 ng/ml IL-6 (R&D Systems), 30 ng/ml IL-23 (R&D Systems), 2.5 μg/ml anti-IL-4 (R&D Systems) and 1 μg/ml anti-IFNγ (R&D Systems) and with test compound during the entire differentiation (or vehicle, 0.1% DMSO for control). Test compounds were tested in triplicates, diluted 1000-fold in medium (final DMSO concentration is 0.1%). […] IL-17 levels in supernatants were measured with ELISA (R&D Systems).

[3] = HEK293 cells, luciferase reporter, 24 h incubation, absolute IC50, read-out: IC50

| SMILES | IC50 [1, 3] | IC50 ([1]; stated as a bound only (Tables 5 a, 6, 7), read-out: Gal4 assay IC50) | IC50 ([2]; Homo sapiens, PBMC, 48 h) | Inhibition of IL-17A (%) at 3 mg/kg (plasma IL-17A) | IC50 (Th17 cells) | IC50 [2] |
| --- | --- | --- | --- | --- | --- | --- |
| NC(=O)CN1CC[C@](O)(Cn2ccc3c(N(Cc4ccc(C(F)(F)F)cc4)C4CC4)ncnc32)[C@@H](O)C1 (single isomer, unassigned) [Example L5-1-1-1] | 2.2 nM | < 100 nM | 3.6 nM | 94% |  |  |
| NC(=O)CN1CCC(Cn2ccc3c(N4CCOCC4c4ccc(C(F)(F)F)cc4)ncnc32)CC1 (single isomer, unassigned) [Example P6-02-2] | 30 nM |  |  |  | 124 nM |  |
| NC(=O)CN1CC[C@](O)(Cn2ccc3c(N(Cc4ccc(-n5cccn5)cc4)C4CC4)ncnc32)[C@@H](O)C1 (single isomer, unassigned) [Example R5-2-1] | 4.9 nM |  |  |  |  | 29 nM |
| NC(=O)CN1CC[C@](O)(Cn2ccc3c(N(Cc4ccc(-n5cccn5)cc4)C4CC4)ncnc32)[C@@H](O)C1 (single isomer, unassigned) [Example R5-2-2] | 6.5 nM |  |  |  |  | 7.4 nM |
| NC(=O)CN1CCC(O)(Cn2cc(F)c3c(N(Cc4ccc(C(F)(F)F)cc4)C4CC4)ncnc32)CC1 [Example 3P6-1, 2-(4-((4-(Cyclopropyl(4-(trifluoromethyl)benzyl)amino)-5-fluoro-7H-pyrrolo[2,3-d]pyrimidin-7-yl)methyl)-4-hydroxypiperidin-1-yl)acetamide] | 6.9 nM |  | 21 nM |  |  |  |
| NC(=O)CN1CCC(O)(Cn2ccc3c(N(Cc4ccc(C(F)(F)F)cc4)C4CC4)ncnc32)CC1 [Example 3P6-2, 2-(4-((4-(cyclopropyl(4-(trifluoromethyl)benzyl)amino)-7H-pyrrolo-[2,3-d]pyrimidin-7-yl)methyl)-4-hydroxypiperidin-1-yl)acetamide] | 4.2 nM |  | 2.2 nM |  |  |  |
| NC(=O)CN1CCC(Cn2cc(F)c3c(N(Cc4ccc(C(F)(F)F)cc4)C4CC4)ncnc32)CC1 [Example P6-05, 2-(4-((4-(cyclopropyl(4-(trifluoromethyl)benzyl)amino)-5-fluoro-7H-pyrrolo[2,3-d]pyrimidin-7-yl)methyl)piperidin-1-yl)acetamide] | 62 nM |  | 20 nM |  |  |  |
| NC(=O)CN1CCC(Cn2cnc3c(N(Cc4ccc(C(F)(F)F)cc4)C4CC4)ncnc32)CC1 [Example P6-06, 2-(4-((6-(cyclopropyl(4-(trifluoromethyl)benzyl)amino)-9H-purin-9-yl)methyl)piperidin-1-yl)acetamide] | 85 nM |  | 48 nM |  |  |  |
| N#CC1(Cn2cc(F)c3c(N(Cc4ccc(C(F)(F)F)cc4)C4CC4)ncnc32)CCN(CC(N)=O)CC1 [Example P6-11, 2-(4-cyano-4-((4-(cyclopropyl(4-(trifluoromethyl)benzyl)amino)-5-fluoro-7H-pyrrolo[2,3-d]pyrimidin-7-yl)methyl)piperidin-1-yl)acetamide] | 16 nM |  | 23 nM |  |  |  |

Source: patent US11780843B2, “Compounds active towards nuclear receptors” (NUEVOLUTION A/S, priority 2020, dated 2023)
